For four molecules, inhibition, inhibition in vivo and response vs control in vivo results are on record in patent US7544703B2, “Cyclic compound having 4-pyridylalkylthio group having substituted or unsubstituted amino group introduced therein” (Santen Pharmaceutical Co., Ltd., priority 2004, dated 2009).

The subject of assay [1] is HUVEC (normal human umbilical vein endothelial cells). Put plainly: VEGF-induced HUVEC proliferation: cell proliferation inhibitory action test.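 Note: each well holds 100 µL cell suspension before compound addition.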 Type of assay: cell-based. The note with it: 72 h, 5 μL of 20 μg/mL test compound solution per well, WST-8 absorbance at 450 nm three days after VEGF addition, read-out: Cell proliferation inhibition rate (%). The protocol:
A cell proliferation inhibitory action test of the compounds of the present invention was performed using a VEGF-induced HUVEC proliferation evaluation system (HUVEC stands for normal human umbilical vein endothelial cells), which is one of the widely-used methods of evaluating in vitro angiogenesis inhibitory effects of drugs. As one of the widely-used methods of evaluating angiogenesis inhibitory effects of drugs, a cell proliferation inhibitory action test using a VEGF-induced HUVEC proliferation reaction evaluation system has been reported in Cancer Res., 59, 99-106 (1999). According to the method described in the above-mentioned document, a cell proliferation inhibitory action test of the compounds of the present invention was performed, the cell proliferation inhibition rate was calculated, and the angiogenesis inhibitory effect of each of the compounds of the present invention was evaluated using the obtained rate as an index. Each test compound was dissolved in dimethyl sulfoxide (hereinafter abbreviated as DMSO), and the obtained solution was diluted with a commercially available phosphoric acid buffer solution (hereinafter abbreviated as PBS), whereby a 20 μg/mL test compound solution was prepared. HUVEC was suspended in a 0.5% fetal bovine serum (hereinafter abbreviated as FBS)-containing F12K medium, whereby a 2×10^4 cells/mL HUVEC suspension was prepared. VEGF was dissolved in 0.1% bovine serum albumin-containing PBS, and the obtained solution was diluted with the 0.5% FBS-containing F12K medium, whereby a 400 ng/mL VEGF solution was prepared. • 1) The HUVEC suspension was inoculated in an amount of 100 μL into each well of a 96-well plate coated with type I collagen (2×10^3 cells per well). • 2) One day after the inoculation, the test compound solution was added in an amount of 5 μL per well. • 3) One hour after the addition of the test compound solution, the VEGF solution was added in an amount of 5 μL per well. • 4) Three days after the addition of the VEGF solution, WST-8 assay kit (Dojin Chemical Co., Ltd.) was added in an amount of 10 μL per well. • 5) After 3 hours, the above-mentioned plate was attached to an absorptiometer (Multilabel Counter ARVO), and an absorbance at 450 nm of each well suspension (hereinafter referred to as test compound suspension) was measured. • 6) A test was carried out in the same manner as in the above 1) to 5) except that 1.0% DMSO was used instead of the test compound solution. The result was used as a control. Incubation was carried out under conditions of 37° C., 5% carbon dioxide and […] in an incubator throughout the above-mentioned test steps. The cell proliferation inhibition rate (%), which was used as an index of an angiogenesis inhibitory effect, was calculated according to the following calculation equation. Cell proliferation inhibition rate (%)=100−{(Absorbance of test compound suspension−A)/(absorbance of control−A)}×100 (Calculation Equation) A: Absorbance of only cell suspension (cell+medium) (Test Results and Discussion)
In general terms: Formazan colour is commonly taken as a measure of viable cells.

The subject of the next assay is B16 cells. Put plainly: Tumor growth inhibitory action test using cancer models in mice (B16 cells). Type of assay: in vivo. The note with it: C57BL/6N mouse, B16 cells intradermal; 100 mg/kg/day oral once a day, day 0 to day 10; average of 9 mice per group; read-out: Tumor tissue weight inhibition rate (%). The protocol:
A tumor growth inhibitory action test of the compounds of the present invention was performed using a tumor growth model in mice, which is one of the widely-used methods of evaluating in vivo anticancer effects of drugs.
As one of the widely-used methods of evaluating anticancer effects of drugs, a tumor growth inhibitory action test using cancer models in mice has been reported in Cancer Res., 59, 5209-5218 (1999). According to the method described in the above-mentioned document, a tumor growth inhibitory action test of the compounds of the present invention was performed, the tumor tissue weight inhibition rate was calculated, and the anticancer effect of each of the compounds of the present invention was evaluated using the obtained rate as an index.
A 1% aqueous methyl cellulose solution was added to each test compound to suspend it with a sonicator, whereby a 10 mg/mL test compound suspension was prepared.
Physiological saline was added to B16 cells, whereby a 3.3×10^7 cells/mL B16 cell suspension was prepared.
• 1) The back of each mouse (female, 6 weeks of age, C57BL/6N mouse) was depilated using a depilatory under Nembutal anesthesia. • 2) Several days after the depilation, the B16 cell suspension (300 μL) was injected intradermally into the back of the mouse under Nembutal anesthesia. • 3) From the B16 cell injection day (i.e. on day 0) to day 10, the test compound suspension (100 mg/kg/day) was orally administered once a day consecutively. • 4) Ten days after the injection of the cells, the mouse was euthanized with CO2 gas. • 5) A tumor tissue was enucleated from the mouse, and the weight of the tumor tissue was measured with an electronic balance. • 6) A test was performed in the same manner as in 1) to 5) except that the 1% aqueous methyl cellulose solution was used instead of the test compound suspension, and the result was used as a control. (Calculation of Tumor Tissue Weight Inhibition Rate)
A tumor tissue weight inhibition rate (the average of 9 mice per group), which was used as an index of anticancer effect, was calculated according to the following calculation equation. Tumor tissue weight inhibition rate (%)=100−(Mx/Mo)×100 (Calculation Equation) Mo: Tumor tissue weight of control group Mx: Tumor tissue weight of test compound solution administration group (Test Results and Discussion)

Assay [2] has as its system adjuvant arthritis models in rats. In words: Paw edema inhibitory action test using adjuvant arthritis models in rats. Type of assay: in vivo. The note with it: 504 h; Lewis rat, adjuvant-untreated (secondary inflammation) paw, day 21; 10 mg/kg/day oral once a day, day 0 to day 20; average of 8 rats per group; read-out: Paw edema inhibition rate (%). As to the method: A paw edema inhibitory action test of the compounds of the present invention was performed using an adjuvant arthritis model in rats, which is one of the widely-used methods of evaluating in vivo antiarthritis effects of drugs.
As one of the widely-used methods of evaluating antiarthritic effects of drugs, a paw edema inhibitory action test using adjuvant arthritis models in rats is known. Accordingly, a paw edema inhibitory action test of the compounds of the present invention was performed, the paw edema inhibition rate was calculated, and the antiarthritic effect of each of the compounds of the present invention was evaluated using the obtained rate as an index.
A 1% aqueous methyl cellulose solution was added to each test compound to suspend it, whereby a 2 mg/mL test compound suspension was prepared.
Liquid paraffin was added to Mycobacterium butyricum to suspend it, whereby 6 mg/mL adjuvant was prepared.
• 1) The adjuvant (0.1 mL) was injected subcutaneously into a left hind paw sole of each rat (male, 9 weeks of age, Lewis rat) to induce arthritis. • 2) From the adjuvant injection day (i.e. on day 0) to day 20, the test compound suspension (10 mg/kg/day) was orally administered once a day consecutively. • 3) On the adjuvant injection day, day 1, day 4, day 7, day 11, day 14, day 18 and day 21, each paw volume of both hind paws was measured with a plethysmometer. • 4) A test was performed in the same manner as in 1) to 3) except that the 1% aqueous methyl cellulose solution was used instead of the test compound suspension, and the result was used as a control. (Method of Evaluation)
Each paw edema inhibition rate of paw edema in an adjuvant-untreated paw (secondary inflammation paw) in each test compound administration group to paw edema in a secondary inflammation paw in a control group was calculated, and the antiarthritic effect of each of the compounds of the present invention was evaluated using the obtained rate as an index.
The paw edema rate was calculated according to the following calculation equation 1, and then the paw edema inhibition rate (the average of 8 rats per group), which was used as an index of the antiarthritic effect, was calculated according to the calculation equation 2. Paw edema rate (%)=(Paw volume after adjuvant treatment/paw volume before adjuvant treatment)×100 (Calculation Equation 1) Paw edema inhibition rate (%)=100−{(Sx−100)/(So−100)}×100 (Calculation Equation 2) So: Paw edema rate of control group Sx: Paw edema rate of test compound suspension administration group (Test Results and Discussion)

Assay [3] relates to choroidal neovascularization models in rats. Put plainly: Neovascularization incidence test using laser-induced choroidal neovascularization models in rats. The note with it: 168 h; Brown Norway rat, krypton laser photocoagulation; 30 mg/kg/day oral once a day for 7 days; fluorescein fundus photography on day 7; average of 3 to 4 rats and 6 to 8 eyes; read-out: Ratio of neovascularization incidence rate (% of Control). Type of assay: in vivo. As to the method:
A neovascularization incidence test of the compounds of the present invention was performed using a choroidal neovascularization model in rats, which is one of the widely-used methods of evaluating in vivo choroidal neovascularization inhibitory effects of drugs.
As one of the widely-used methods of evaluating choroidal neovascularization inhibitory effects of drugs, a neovascularization incidence test using choroidal neovascularization models in rats was reported in Graefe's Arch. Cli. Exp. Ophthalmol., 235, 313-319 (1997). According to the method described in the above-mentioned document, a neovascularization incidence test of the compounds of the present invention was performed, the ratio of neovascularization incidence rate of each of the compounds of the present invention administration groups to a neovascularization incidence rate of vehicle administration group (control group) was calculated, and the choroidal neovascularization inhibitory effect of each of the compounds of the present invention was evaluated using the obtained ratio as an index.
A 1% aqueous methyl cellulose solution was added to each test compound to suspend it, whereby a 6 mg/10 mL test compound suspension was prepared.
• 1) A 7:1 mixed solution (1 mL/kg) of a 5% ketamine hydrochloride injection and a 2% xylazine hydrochloride injection was administered intramuscularly to rats (Brown Norway male rat, 8 weeks of age, weight: 200 to 250 g) to anesthetize them systemically. • 2) A tropicamide-phenylephrine hydrochloride ophthalmic solution (trade name: Mydrin-P) was instilled into eyes to cause mydriasis, and then photocoagulation was performed in a Bruch's membrane of each rat using a krypton laser photocoagulation apparatus.
The laser photocoagulation was performed at 8 spots per eye sparsely avoiding thick retinal vessels in a posterior section of ocular fundus and focusing on the deep layer of the retina. Photocoagulation conditions were adjusted to 100 μm of spot size, 100 mW of intensity and 0.1 sec. dulation. • 3) After the photocoagulation, the ocular fundus was photographed to confirm photocoagulation (laser irradiation) sites. (Method of Test and Method of Measurement) • 1) From the laser photocoagulation day (i.e. on day 0) to day 6, the test compound suspension (30 mg/kg/day) was administered orally once a day for 7 consecutive days. • 2) As the vehicle administration group (control group), a test was performed in the same manner as in 1) except that the 1% aqueous methyl cellulose solution was used instead of the test compound suspension, and the result was used as a control. (Method of Evaluation) • 1) On day 7 after the photocoagulation, 0.1 mL of a 10% aqueous fluorescein solution was injected into a tail vein of the rat, and fluorescein fundus photography was performed. • 2) Next, in the fluorescein fundus photography, a spot where fluorescence leak was not observed was judged as negative, and a spot where fluorescence leak was observed was judged as positive. Photocoagulation sites where a little fluorescence leak was observed were judged as positive when two such sites are present. • 3) The neovascularization incidence rate was calculated according to the calculation equation 1. The ratio of the neovascularization incidence rate of the test compound administration group to that of the vehicle administration group was calculated according to the calculation equation 2 using the neovascularization incidence rate of the respective administration groups. […]

Counter-ions that a name gives are not always drawn.

`CNc1cc(CSc2ncccc2C(=O)Nc2cc(C)cc(C)c2)ccn1` [Compound 3-6, N-(3,5-Dimethylphenyl)-2-(2-methylaminopyridin-4-ylmethylthio)pyridine-3-carboxamide monohydrochloride]: the inhibition at 20 µg/mL (stock) in assay [1] worked out at 100%. Also, the inhibition in vivo at 100 mg/kg/day in the assay with B16 cells turned out to be 71%. The inhibition in vivo at 10 mg/kg/day in assay [2] amounted to 33%.

In the case of `CC(=O)Nc1cc(CSc2ncccc2C(=O)Nc2cccc(C)c2)ccn1` [Compound 4-20, 2-(2-Acetylaminopyridin-4-ylmethylthio)-N-(3-methylphenyl)pyridine-3-carboxamide], the inhibition in vivo at 100 mg/kg/day in the assay on B16 cells was 84%. Besides, in assay [3], the response vs control in vivo at 30 mg/kg/day came to 22%.

As for `CC(=O)N1CCN(c2cc(CSc3ncccc3C(=O)Nc3cc(C)cc(C)c3)ccn2)CC1` [Compound 1-6, 2-[2-(4-Acetylpiperazin-1-yl)pyridin-4-ylmethylthio]-N-(3,5-dimethylphenyl)pyridine-3-carboxamide], the inhibition at 20 µg/mL (stock) in assay [1] came to 100%. For the same molecule, the inhibition in vivo at 100 mg/kg/day with B16 cells was determined as 42%. The response vs control in vivo at 30 mg/kg/day in assay [3] amounted to 38%.

As to `Cc1cc(C)cc(NC(=O)c2ccccc2SCc2ccnc(N)c2)c1` [Compound 3-20, 2-(2-Aminopyridin-4-ylmethylthio)-N-(3,5-dimethylphenyl)benzamide monohydrochloride], the inhibition at 20 µg/mL (stock) in assay [1] came out at 100%. In the assay with B16 cells, the inhibition in vivo at 100 mg/kg/day is 42%.
